Test [1] concerns the target T1, Panx1 (Mus musculus, UniProt Q9JIP4).
T1 construct: we progressively substituted amino acids in this region of full-length Panx1 with alanine residues; HA; expressed in transfected cells; host or cells: HEK293T cells, transient co-transfection with alpha1DAR plasmid (Origene, NM_013460, C-terminal Myc-DDK)
The test can be described thus: Whole-cell patch clamp of CBX-sensitive Panx1 current in HEK293 cells cotransfected with mPanx1 and α1DAR. In kind it is cell-based. As to conditions: CBX 50 μmol/L after phenylephrine, +80 mV. As for the experimental part: Human Embryonic Kidney (HEK) 293T cells were cultured as previously described, and were used until passage 20. For ATP measurements, 50,000 cells/well were seeded in 24 well plates pre-coated with 0.01% poly-L-lysine, and transfected using Lipofectamine 2000 (Invitrogen) according to the manufacturer protocol. Briefly, 0.4 μg of α1DAR and 0.4 μg of Panx1^WT, Panx1^KYP>AAA, Panx1^IVEQ>AAA or Panx1^YLK>AAA plasmids were added to each well along with 2 μl of Lipofectamine 2000. For electrophysiology measurements, 4 μg of α1DAR plasmid, 2 μg of Panx1^WT, Panx1^KYP>AAA, Panx1^IVEQ>AAA or Panx1^YLK>AAA plasmids, and 0.5 μg of GFP plasmid were mixed with 10 μl Lipofectamine 2000 and added to a well of 6-well plate seeded with ˜70% confluent HEK cells. Cells were split the next morning and plated onto a glass coverslip for recording. ATP measurements and whole-cell recordings were performed 24 hours after transfection.
Whole-cell recordings were obtained at room temperature from transiently transfected HEK293T cells using Axopatch 200B amplifier (Molecular Devices) in a bath solution composed of 140 mmol/L NaCl, 3 mmol/L KCl, 2 mmol/L MgCl2, 2 mmol/L CaCl2, 10 mmol/L HEPES and 10 mmol/L glucose (pH 7.3). Patch pipettes (3-5 MΩ) were filled with a Cs-/TEA-based internal solution, as previously described. Ramp voltage commands with 7-s intervals were applied using pCLAMP software and Digidata1322A digitizer (Molecular Devices). Peak whole-cell currents were determined at +80 mV and normalized to cell capacitance. Current mediated by Panx1 was defined by its sensitivity to carbenoxolone (CBX). In this system, no CBX-sensitive current is observed in HEK293T cells without Panx1. Basal current was recorded for approximately two minutes and PE (20 μmol/L) was applied to the bath solution, which was followed by addition of CBX (50 μmol/L). When indicated, cells were pre-incubated with bath solution containing IL2 peptide or its scrambled version at room temperature for 40-60 minutes prior to the experiment. The effect of PE on Panx1 current was quantified relative to CBX-sensitive basal current, and data was expressed as percent increase in CBX-sensitive current. All experiments were performed on 8 to 22 cells for each conditions tested. Data were analyzed using a Kruskall Wallis test (non-parametric one-way ANOVA) followed by Dunn's post-hoc test.
To test if α1AR stimulation triggered opening of the Panx1 channel and the importance of the region represented by the IL2 peptide, we cotransfected mPanx1 and α1DAR into HEK293 cells and monitored whole-cell currents by patch clamp electrophysiology.
(The patch-clamp technique gives a direct electrical read-out from membranes.)

In test [2] the target is T2, Panx1 (Homo sapiens, UniProt Q96RD7). As to conditions: cited from earlier work.
Target sequence in this assay (Q96RD7 whole entry): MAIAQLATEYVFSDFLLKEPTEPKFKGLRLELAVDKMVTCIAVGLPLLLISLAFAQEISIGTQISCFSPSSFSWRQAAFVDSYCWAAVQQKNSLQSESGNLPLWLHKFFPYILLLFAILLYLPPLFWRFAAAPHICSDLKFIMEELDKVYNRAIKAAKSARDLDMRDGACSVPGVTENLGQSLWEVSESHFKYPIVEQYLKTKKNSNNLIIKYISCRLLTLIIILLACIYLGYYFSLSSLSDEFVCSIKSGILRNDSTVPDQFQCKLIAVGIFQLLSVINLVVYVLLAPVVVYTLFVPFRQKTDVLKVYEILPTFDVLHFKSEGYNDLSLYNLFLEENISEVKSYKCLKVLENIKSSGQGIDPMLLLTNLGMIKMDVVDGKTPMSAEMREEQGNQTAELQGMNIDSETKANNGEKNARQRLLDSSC
Test [3] deals with anaesthetized guinea pigs. As to conditions: injected into anaesthetized guinea pigs; cited from earlier work.
For another test, the system named is Cre/Panx1 mice. As to the kind of experiment: Blood pressure by radiotelemetry before and after tamoxifen in the conditional KO mouse model. In kind it is in vivo. On the procedure:
Blood pressure was measured using radiotelemetry units (Data Sciences International, DSI) implanted in C57Bl/6, Cre^−/Panx1^F1, Cre^−/Panx1^WT, Cre^+/Panx1^WT, and Cre^+/Panx1^F1 mice. The catheter of a radiotelemetry unit (TA11PA-C10, DSI) was implanted in the mouse left carotid artery under isoflurane anesthesia, and the catheter was tunneled trough the radiotransmitter placed in a subcutaneous pouch along the right flank of the mouse, as previously described. After implantation, mice were allowed to recover for seven days.
For experiments on the conditional KO mouse model: blood pressure was measured using Dataquest A.R.T. 20 software (DSI) for five days before proceeding to tamoxifen injections at 1 mg/kg for ten days. Blood pressure was recorded for another five days 24 hours after the last tamoxifen injection. The change in mean arterial pressure (ΔMAP) was calculated by subtracting the average MAP measured for five days before tamoxifen injections to the mean arterial pressure measured for five days after the tamoxifen injections. […]
Based on the central role of α1AR signaling in blood pressure homeostasis, we evaluated the effect of Panx1 deletion on systemic blood pressure. Blood pressure was measured using radiotelemetry units as previously described by us. Blood pressure was measured on the conditional KO mouse model for five days before proceeding to tamoxifen injections, and for another five days 24 hours after the last tamoxifen injection. The change in mean arterial pressure (ΔMAP) was calculated by subtracting the average MAP measured for five days before tamoxifen injections to the MAP measured for five days after the tamoxifen injections. Day MAP was measured during the light cycle (06:00-18:00), while night MAP was measured during the nocturnal cycle (18:00 to 06:00). For experiments on C57Bl/6, basal blood pressure was measured continuously for 30 minutes before intraperitoneal injection of saline solution or peptide, and for 1.5 hours after the injection. […]

Test [4] deals with T2, Panx1. As to conditions: neurons; cited from earlier work.
Target sequence in this assay (Q96RD7 whole entry, species assumed): as the sequence (Q96RD7 whole entry) above
Test [5] relates to thoracodorsal arteries (TDA). As to the kind of experiment: Pressure myography: agonist-induced constriction of pressurized TDAs from C57Bl/6 mice with pannexin inhibitors or Panx1 mimetic peptides. In kind it is cell-based, mouse. As for the experimental part: The contractile responses of pressurized thoracodorsal arteries (TDA) were measured as previously described. Briefly, TDA were isolated and placed in cold Krebs-HEPES until cannulation in a pressure arteriograph (Danish MyoTechnology). After a 30 minute equilibration period, cumulative concentrations of contractile agonists were applied to the TDA pressurized at 80 mmHg, and the vessel was visualized with an Olympus IX-71 microscope attached to a Hamamatsu EM-CCD camera coupled to Slidebook imaging software. […] Lastly, maximal diameter was measured at the end of each experiment in calcium-free Krebs-HEPES supplemented with EGTA (1 mmol/L) and sodium nitroprusside (10 μmol/L). In cases where the vessels were not constricting to the contractile agonist, their viability was assessed by applying 40 mM KCl and only TDA reaching 30% of the maximal diameter were considered for analysis. The contractile responses, as well as the basal tone, are expressed as a percentage of the maximal diameter.
Using pressure arteriography on TDA dissected from C57Bl/6 mice (as described; and aortic ring contraction, as described), we measured the effect of pannexin inhibitors, probenecid and 10Panx1, on the contractile response upon stimulation with different vasoconstrictors: phenylephrine (FIG. 1A), noradrenaline (also called norepinephrine) (FIG. 1B), serotonin (also known as 5-HT) (FIG. 1C) and endothelin-1 (FIG. 1D). […] In contrast, ^10Panx1 and probenecid had no effect on contraction of TDA measured in response to cumulative concentrations of serotonin or endothelin-1 (FIGS. 1C-D; Table 1).
To determine the region of Panx1 necessary for channel activation in response to α1AR stimulation, we produced short peptides derived from the intracellular regions of the Panx1 channel. We generated two peptides mimicking unique mouse Panx1 (mPanx1) sequences in the first intracellular loop (IL1 and IL2) and two peptides mimicking unique mPanx1 sequences in the C-terminal region, one in second intracellular loop (CT1) and one in the C-terminal tail (CT2) (FIG. 4A scissors indicate caspase 3 cleavage site; Table 3). All peptides also contained a TAT sequence to facilitate entry into cells and we verified the intracellular localization of each peptide by immunofluorescence detection of the TAT sequence in TDAs pre-incubated with each peptide (FIG. 7A). We tested the effect of each peptide on phenylephrine-induced contractile responses in pressurized TDAs from C57Bl/6 mice (FIGS. 4B-E). […] Note that these differences in effects of phenylephrine were similar in magnitude to those observed in arteries from SMC-specific Panx1-knockout mice and littermate controls (FIG. 2C, Table 2).

T1 sequence (Q9JIP4 whole entry): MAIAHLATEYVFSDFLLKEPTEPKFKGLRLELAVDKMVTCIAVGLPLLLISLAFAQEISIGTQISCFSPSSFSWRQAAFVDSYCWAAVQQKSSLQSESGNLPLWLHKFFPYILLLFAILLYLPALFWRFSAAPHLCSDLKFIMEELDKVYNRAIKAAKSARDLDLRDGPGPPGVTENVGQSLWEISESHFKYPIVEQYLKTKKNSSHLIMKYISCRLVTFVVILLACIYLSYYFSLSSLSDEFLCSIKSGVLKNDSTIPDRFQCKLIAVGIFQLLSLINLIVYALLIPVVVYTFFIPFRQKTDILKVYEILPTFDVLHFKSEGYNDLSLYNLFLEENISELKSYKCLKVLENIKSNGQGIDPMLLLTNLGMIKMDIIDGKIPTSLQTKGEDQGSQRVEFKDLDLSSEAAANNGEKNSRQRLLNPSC

Regarding `CC1(C)[C@@H](OC(=O)CCC(=O)O)CC[C@]2(C)[C@H]3C(=O)C=C4[C@@H]5C[C@@](C)(C(=O)O)CC[C@]5(C)CC[C@@]4(C)[C@]3(C)CC[C@@H]12` [CBX, carbenoxolone], the “effect on Panx1 whole-cell current” value on Panx1 [1] is “abolished the current”. On to `N[C@@H]1[C@H]2CN(c3nc4c(cc3F)c(=O)c(C(=O)O)cn4-c3ccc(F)cc3F)C[C@@H]12` [Trovafloxacin], for which the “inhibition of Panx1 channels” value at Panx1 [2] is recorded as “can also inhibit Panx1 channels”. For the molecule `OC(c1cc(C(F)(F)F)nc2c(C(F)(F)F)cccc12)C1CCCCN1` (stereo not drawn) [mefloquine], in test [3], the “effect on blood pressure” value is “induces hypotension”. In the test on Cre/Panx1 mice (Cre^+/Panx1^Fl mice, after tamoxifen), `CC/C(=C(\c1ccccc1)c1ccc(OCCN(C)C)cc1)c1ccccc1` [tamoxifen] had a heart rate of 549±7 beats per min. Further, the “decrease of mean arterial blood pressure” value in the test with Cre/Panx1 mice (Cre^+/Panx1^Fl mice, tamoxifen 1 mg/kg i.p. for ten days (induces SMC Panx1 deletion)) is given as 4.6±2.1 mmHg. Further, the “change of mean arterial blood pressure” value with Cre/Panx1 mice (mice retaining Panx1 (Cre^−/Panx1^WT, Cre^−/Panx1^Fl, Cre^+/Panx1^WT)) is reported as “no evident changes”.

Consider “mPanx1 305-RRLKVYEILPTFDVLH-318 (SEQ ID NO: 5) linked with TAT; previously published to inhibit NMDA-mediated Panx1 opening [CT1]”, for which the “effect on NMDA-induced Panx1 activation” value with Panx1 [4] was “prevent”. Also, the “effect on phenylephrine-induced constriction of pressurized TDAs” value in test [5] (TAT-linked peptides, C57Bl/6 TDAs) is “did not affect”. In test [5] (in presence of the named peptide), the “EMAX of phenylephrine for TDA constriction” value was 50.7 ± 9.08 percentage of maximal diameter.

These data come from US10314883B2, “Compositions and methods for regulating blood pressure” (University of Virginia Patent Foundation, priority 2015, dated 2019).
